Source: patent US20060069132A1, “Azolecarboxamide herbicides” (priority 2004, published 2006)

How the values were obtained:
Surinam grass (BRADC) = experiment: Test J Compounds 2 and 6 alone and in combination with other herbicides, foliage spray; assay type: in vivo, Urochloa decumbens; set-up: key: 0 = no effect, 100 = complete control; settings: applied alone
How it was run: (§1)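 Visual control rating (0 = no effect, 100 = complete control), mean of three replicates, scored 15 days after a 541 L/ha foliar spray of 1- to 4-leaf plants. Mixture expectations derived with Colby's Equation from the single-component effects at matching rates.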

cocklebur (XANST) = experiment: as above; assay type: in vivo, Xanthium strumarium; set-up: key: 0 = no effect, 100 = complete control; settings: applied alone
How it was run: as §1

corn (ZEAMD) = experiment: as above; assay type: in vivo, Zea mays; set-up: key: percentage herbicidal effect (observed); settings: applied alone
How it was run: as §1

giant foxtail (SETFA) = experiment: as above; assay type: in vivo, Setaria faberi; set-up: key: 0 = no effect, 100 = complete control; settings: applied alone
Source text: (§2) Seeds of test plants consisting of barnyardgrass (ECHCG; Echinochloa crus-galli (L.) Beauv.), blackgrass (ALOMY; Alopecurus myosuroides Huds.), Surinam grass (BRADC; Urochloa decumbens (Staph) R. D. Webster, previously named Brachiaria decumbens Stapf), cocklebur (XANST, Xanthium strumarium L.), corn (ZEAMD, Zea mays L. cv. ‘Pioneer 33G26’), large crabgrass (DIGSA, Digitaria sanguinalis (L.) Scop.), giant foxtail (SETFA, Setaria faberi Herrm.), lambsquarters (CHEAL, Chenopodium album L.), morningglory (IPOCO, Ipomoea coccinea L.), pigweed (AMARE, Amaranthus retroflexus L.), velvetleaf (ABUTH, Abutilon theophrasti Medik.) wheat (TRZAS, Triticum aestivum L. cv. ‘Recital’) and wild oat (AVEFA, Avena fatua L.) were planted in Redi-Earth® planting medium (Scotts Company, 14111 Scottslawn Road, Marysville, Ohio 43041) comprising spaghnum peat moss and vermiculite. Seeds of small-seeded species were planted about 1 cm deep; larger seeds were planted about 2.5 cm deep. Plants were grown in a greenhouse using supplemental lighting to maintain a photoperiod of about 14 hours; daytime and nighttime temperatures were about 24-30° C. and 22-25° C., respectively. Balanced fertilizer was applied through the watering system. The plants were grown for 7 to 11 days so that at time of treatment the plants ranged in height from 2 to 18 cm (1- to 4-leaf stage). Treatments consisted of Compounds 2 and 6 (technical material), atrazine (90DF), terbacil (Sinbar® 80DF), hexazinone (Velpar® 75WG), diuron (Karmex® 80WP) and paraquat (Gramoxone® Extra, 37%) alone and in combination, suspended or dissolved in an aqueous solvent comprising a nonionic surfactant and applied as a foliage spray using a volume of 541 L/ha. Each treatment was triply replicated. […] Treated plants and controls were maintained in the greenhouse and watered as needed with care to not wet the foliage for the first 24 hours after treatment. The effects on the plants 15 days after treatment were visually compared to untreated controls. Plant response ratings, listed in Table J as the means of the thee replicates, are based on a scale of 0 to 100 where 0 is no effect and 100 is complete control. Also listed in Table J are the expected effects for the mixtures calculated using Colby's Equation.

lambsquarters (CHEAL) = experiment: as above; assay type: in vivo, Chenopodium album; set-up: key: % herbicidal effect (observed); settings: applied alone
Source text: (§3) Colby's Equation was used to calculate the expected additive herbicidal effect of the mixtures of Compound 6 with Harmony® Extra (i.e. a 2:1 mixture by weight of thifensulfuron-methyl and tribenuron-methyl). Colby's Equation (Colby, S. R. “Calculating Synergistic and Antagonistic Responses of Herbicide Combinations,” Weeds, 15(1), pp 20-22 (1967)) calculates the expected additive effect of herbicidal mixtures, and for two active ingredients is of the form: Pa+b=Pa+Pb−(PaPb/100) wherein • Pa+b is the percentage effect of the mixture expected from additive contribution of the individual components, • Pa is the observed percentage effect of the first active ingredient at the same use rate as in the mixture, and • Pb is the observed percentage effect of the second active ingredient at the same use rate as in the mixture.
as §2

morningglory (IPOCO) = experiment: as above; assay type: in vivo, Ipomoea coccinea; set-up: key: 0 = no effect, 100 = complete control; settings: applied alone
How it was run: as §1

pigweed (AMARE) = experiment: as above; assay type: in vivo, Amaranthus retroflexus; set-up: key: 0 = no effect, 100 = complete control; settings: applied alone
Source text: as §3, §2

velvetleaf (ABUTH) = experiment: as above; assay type: in vivo, Abutilon theophrasti; set-up: key: 0 = no effect, 100 = complete control; settings: applied alone
Source text: as §3, §2

wheat (TRZAS) = experiment: as above; assay type: in vivo, Triticum aestivum; set-up: key: 0 = no effect, 100 = complete control; settings: applied alone
How it was run: as §1

wild oat (AVEFA) = experiment: as above; assay type: in vivo, Avena fatua; set-up: key: 0 = no effect, 100 = complete control; settings: applied alone
Source text: as §3, §2

common chickweed = experiment: Test F pre-/postemergence herbicide test; assay type: in vivo, Stellaria media
Source text: (§4) Seeds of plant species selected from annual blugrass (Poa annua L.), blackgrass (Alopecurus myosuroides Huds.), catchweed bedstraw (Gallium aparine L.), common chickweed (Stellaria media (L.) Vill./Cyr.), downy bromegrass (Bromus tectorum L.), green foxtail (Setaria viridis (L.) Beauv.), Italian ryegrass (Lolium multiflorum Lam.), kochia (Kochia scoparia (L.). Schrad.), lambsquarters (Chenopodium album L.), littleseed canarygrass (Phalaris minor Retz.), pigweed (Amaranthus retroflexus L.), Russian thistle (Salsola kali L. ssp. Ruthenica (Iljin) Soo), wild buckwheat (Polygonum convolvulus L.), wild mustard (Sinapis arvensis L.), wild oat (Avena fatua L.), windgrass (Apera spica-venti (L.) Beauv.), winter barley (Hordeum vulgare L.), and wheat (Triticum aestivum L.) were planted and treated preemergence with test chemicals formulated in a non-phytotoxic solvent mixture which included a surfactant.
At the same time, plants selected from these crop and weed species were treated with postemergence applications of some of the test chemicals formulated in the same manner. Plants ranged in height from 2 to 18 cm (1- to 4-leaf stage) for postemergence treatments. Treated plants and controls were maintained in a greenhouse for 12 to 14 days, after which time all species were compared to controls and visually evaluated. Plant response ratings, summarized in Table F, are based on a scale of 0 to 100 where 0 is no effect and 100 is complete control. A dash (-) response means no test result.

wild buckwheat = experiment: Test F pre-/postemergence herbicide test; assay type: in vivo, Polygonum convolvulus; settings: 125 g ai/ha
Source text: as §4
At the same time, plants selected from these crop and weed species were treated with postemergence applications of some of the test chemicals formulated in the same manner. Plants ranged in height from 2 to 18 cm (1- to 4-leaf stage) for postemergence treatments. Treated plants and controls were maintained in a greenhouse for 12 to 14 days, after which time all species were compared to controls and visually evaluated. […]

`CCNC(=O)c1ccc(F)c(NC(=O)c2cc(C(C)(C)C)nn2CC)c1` [Compound 2, 3-(1,1-dimethylethyl)-1-ethyl-N-[5-[(ethylamino)carbonyl]-2-fluorophenyl]-1H-pyrazole-5-carboxamide] was tested, and the “BRADC Obsd.” value (Surinam grass (BRADC); 62 g a.i./ha) was 8, the “BRADC Obsd.” value (Surinam grass (BRADC); 125 g a.i./ha) was 17 and the “XANST Obsd.” value (cocklebur (XANST); 62 g a.i./ha) was 50. The “XANST Obsd.” value (cocklebur (XANST); 125 g a.i./ha) was 58, the “ZEAMD Obsd.” value (corn (ZEAMD); 62 g a.i./ha) was 25 and the “ZEAMD Obsd.” value (corn (ZEAMD); 125 g a.i./ha) was 65. The “SETFA Obsd.” value (giant foxtail (SETFA); 62 g a.i./ha) was 28, the “SETFA Obsd.” value (giant foxtail (SETFA); 125 g a.i./ha) was 32 and the “CHEAL Obsd.” value (lambsquarters (CHEAL); 62 g a.i./ha) was 40. For the same compound, the “CHEAL Obsd.” value (lambsquarters (CHEAL); 125 g a.i./ha) was 55, the “IPOCO Obsd.” value (morningglory (IPOCO); 62 g a.i./ha) was 17 and the “IPOCO Obsd.” value (morningglory (IPOCO); 125 g a.i./ha) was 27. For the same compound, the “AMARE Obsd.” value (pigweed (AMARE); 62 g a.i./ha) was 47, the “AMARE Obsd.” value (pigweed (AMARE); 125 g a.i./ha) was 68 and the “ABUTH Obsd.” value (velvetleaf (ABUTH); 62 g a.i./ha) was 17. The “ABUTH Obsd.” value (velvetleaf (ABUTH); 125 g a.i./ha) was 18, the “TRZAS Obsd.” value (wheat (TRZAS); 62 g a.i./ha) was 8 and the “TRZAS Obsd.” value (wheat (TRZAS); 125 g a.i./ha) was 10. The “AVEFA Obsd.” value (wild oat (AVEFA); 62 g a.i./ha) was 8 and the “AVEFA Obsd.” value (wild oat (AVEFA); 125 g a.i./ha) was 15.
`CCn1nc(C(C)(C)C)cc1C(=O)Nc1cccc(C(N)=O)n1` [Compound 162, 6-[[[3-(1,1-dimethylethyl)-1-ethyl-1H-pyrazol-5-yl]carbonyl]amino]-2-pyridinecarboxamide] was tested, and the “Plant response rating (0-100), Chickweed” value (common chickweed; Postemergence, 62 g ai/ha) was 70, the “Plant response rating (0-100), Chickweed” value (common chickweed; Postemergence, 125 g ai/ha) was 80 and the “Plant response rating (0-100), Chickweed” value (common chickweed; Postemergence, 250 g ai/ha) was 100. For the same compound, the “Plant response rating (0-100), Chickweed” value (common chickweed; Postemergence, 500 g ai/ha) was 100, the “Plant response rating (0-100), Chickweed” value (common chickweed; Preemergence, 62 g ai/ha) was 100 and the “Plant response rating (0-100), Chickweed” value (common chickweed; Preemergence, 125 g ai/ha) was 100. The “Plant response rating (0-100), Chickweed” value (common chickweed; Preemergence, 250 g ai/ha) was 100 and the “Plant response rating (0-100), Chickweed” value (common chickweed; Preemergence, 500 g ai/ha) was 100.
In the case of `CCc1nn(C(C)(C)C)cc1C(=O)Nc1cc(C(=O)N(CC)CC)ccc1F` [Compound 223], the “Plant response rating (0-100), Chickweed” value (common chickweed; Postemergence, 125 g ai/ha) is reported as 60, the “Plant response rating (0-100), Chickweed” value (common chickweed; Preemergence, 125 g ai/ha) is reported as 100 and the “Plant response rating (0-100), Buckwheat, Wild” value (wild buckwheat; Postemergence) is reported as 40. The “Plant response rating (0-100), Buckwheat, Wild” value (wild buckwheat; Preemergence) was 55.
